Results published in US7250408B2, “Glucocorticoid receptor antagonists for prophylaxis and therapy of glucocorticoid-mediated hypogonadism, of sexual dysfunction and/or infertility” (Bayer Schering Pharma AG, priority 2002, dated 2007).

Experiments:
Progesterone Receptor = molecular target: T1, Progesterone Receptor (Homo sapiens, UniProt P06401); test: Progesterone receptor binding, relative binding affinity (RBA); details: RBA relative to progesterone = 100
T1 sequence (P06401 1-933): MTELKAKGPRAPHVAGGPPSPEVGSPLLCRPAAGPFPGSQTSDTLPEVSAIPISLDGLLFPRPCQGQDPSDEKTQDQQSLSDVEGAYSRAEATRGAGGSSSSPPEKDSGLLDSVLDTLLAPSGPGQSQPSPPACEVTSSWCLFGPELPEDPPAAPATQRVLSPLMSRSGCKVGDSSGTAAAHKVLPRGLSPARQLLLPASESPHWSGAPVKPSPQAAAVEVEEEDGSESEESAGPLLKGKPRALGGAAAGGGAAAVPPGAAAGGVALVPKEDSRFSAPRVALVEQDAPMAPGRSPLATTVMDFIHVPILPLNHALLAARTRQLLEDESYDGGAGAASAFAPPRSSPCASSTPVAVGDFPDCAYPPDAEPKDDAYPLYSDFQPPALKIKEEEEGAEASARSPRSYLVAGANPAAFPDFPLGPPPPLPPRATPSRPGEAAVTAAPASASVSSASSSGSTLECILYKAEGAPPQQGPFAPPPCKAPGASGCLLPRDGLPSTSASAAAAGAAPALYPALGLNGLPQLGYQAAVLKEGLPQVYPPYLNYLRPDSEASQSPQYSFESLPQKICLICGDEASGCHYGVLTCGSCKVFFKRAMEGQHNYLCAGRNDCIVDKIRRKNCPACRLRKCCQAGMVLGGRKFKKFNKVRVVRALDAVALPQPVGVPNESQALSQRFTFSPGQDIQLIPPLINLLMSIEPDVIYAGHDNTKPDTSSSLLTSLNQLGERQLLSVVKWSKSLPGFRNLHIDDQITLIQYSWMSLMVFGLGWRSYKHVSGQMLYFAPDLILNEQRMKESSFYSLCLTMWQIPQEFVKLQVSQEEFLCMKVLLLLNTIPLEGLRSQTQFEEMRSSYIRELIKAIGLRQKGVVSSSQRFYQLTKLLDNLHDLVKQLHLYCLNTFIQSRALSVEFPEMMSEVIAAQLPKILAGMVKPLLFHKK

Glucocorticoid Receptor = molecular target: T2, Glucocorticoid Receptor (Homo sapiens, UniProt P04150); test: Glucocorticoid receptor binding, relative binding affinity (RBA); details: RBA relative to dexamethasone = 100
T2 sequence (P04150 1-777): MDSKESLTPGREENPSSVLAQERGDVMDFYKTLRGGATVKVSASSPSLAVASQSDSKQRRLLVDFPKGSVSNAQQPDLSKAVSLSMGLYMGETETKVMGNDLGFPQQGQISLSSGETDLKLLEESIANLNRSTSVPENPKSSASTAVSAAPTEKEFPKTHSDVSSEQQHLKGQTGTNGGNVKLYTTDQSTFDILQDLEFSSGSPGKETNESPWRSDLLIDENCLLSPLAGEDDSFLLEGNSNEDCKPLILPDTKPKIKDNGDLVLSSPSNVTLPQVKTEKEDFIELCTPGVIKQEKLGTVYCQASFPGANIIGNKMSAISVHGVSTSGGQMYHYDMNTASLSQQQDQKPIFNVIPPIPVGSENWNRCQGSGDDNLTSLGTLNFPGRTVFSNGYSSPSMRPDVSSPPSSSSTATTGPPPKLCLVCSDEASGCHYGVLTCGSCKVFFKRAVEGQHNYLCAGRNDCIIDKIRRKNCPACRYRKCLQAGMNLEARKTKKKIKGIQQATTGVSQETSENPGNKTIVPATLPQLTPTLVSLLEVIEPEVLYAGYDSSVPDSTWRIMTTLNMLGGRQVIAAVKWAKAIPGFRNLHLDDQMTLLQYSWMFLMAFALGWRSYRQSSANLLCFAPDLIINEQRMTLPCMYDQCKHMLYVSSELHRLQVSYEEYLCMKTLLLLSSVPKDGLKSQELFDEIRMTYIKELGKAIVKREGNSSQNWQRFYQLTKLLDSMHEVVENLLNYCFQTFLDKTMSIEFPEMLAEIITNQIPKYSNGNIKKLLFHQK

SMILES | Relative Binding Affinity to Progesterone Receptor, % (Progesterone Receptor) [%] | Relative Binding Affinity to Glucocorticoid Receptor, % (Glucocorticoid Receptor) [%]
COc1cccc(C2CC3(C)C(CCC3(O)C#Cc3cccc(C=NO)c3)C3CCC4=CC(=O)CCC4=C23)c1 (stereo not drawn) [Example 10, 3-E-[17-Hydroxy-11β-[3-(methoxy)phenyl)-19-nor-3-keto-17α-pregna-4,9-dien-20-yn-21-yl]benzaldoxime] | 10.4 | 148
COc1cccc(C2CC3(C)C(CCC3(O)C#Cc3ccc(-n4cccc4)cc3)C3CCC4=CC(=O)CCC4=C23)c1 (centres unmarked) [Example 5] | 3.4 | 57
COc1cccc(C2CC3(C)C(CCC3(O)C#Cc3ccc(S(C)(=O)=O)cc3)C3CCC4=CC(=O)CCC4=C23)c1 (stereo not drawn) [Example 7, 17-Hydroxy-21-(4-mesylphenyl)-11,6-(3-methoxyphenyl)-19-nor-17α-pregna-4,9-dien-20-yn-3-one] | 1.0 | 155
COc1cccc(C2CC3(C)C(CCC3(O)C#Cc3ccc(OC(C)=O)cc3)C3CCC4=CC(=O)CCC4=C23)c1 (centres unmarked) [Example 4] | 2.8 | 98
COc1cccc(C2CC3(C)C(CCC3(O)C#Cc3cccc(C=O)c3)C3CCC4=CC(=O)CCC4=C23)c1 (stereo not drawn) [Example 3, 3-{17-Hydroxy-11β-[3-(methoxy)phenyl]-3-keto-19-nor-17α-pregna-4,9-dien-20-yn-21-yl}benzaldehyde] | 4.3 | 159
COc1cccc(C2CC3(C)C(CCC3(O)C#CC(C)(C)C)C3CCC4=CC(=O)CCC4=C23)c1 (stereo not drawn) [Example 1, 21-tert.Butyl-17-hydroxy-11β-(3-methoxyphenyl)-19-nor-17α-pregna-4,9-dien-20-yn-3-one] | 3.4 | 85
COc1cccc(C2CC3(C)C(CCC3(O)C#Cc3ccc(O)cc3)C3CCC4=CC(=O)CCC4=C23)c1 (centres unmarked) [Example 6] | 2.9 | 109
